The record followed here is patent US20220017866A1, “PRODUCTION METHODS FOR MEGAKARYOCYTES AND PLATELETS” (KYOTO UNIVERSITY, priority 2013, published 2022).

Data set [1] concerns c-MYC-DD-2A-BMI1-introduced cells.
Protocol: (§1) Therefore, the activity of caspase-3/7 in the presence of Shield-1 was then measured.
Data set [2] has as its system caspase-3/7. Nature of the data set: Caspase-3/7 activity in the presence of Shield-1. It counts as cell-based, human. To be noted: Day 2.
Protocol: as §1
The subject of data set [3] is megakaryocytic progenitor cells. Briefly: Expanding culture of c-Myc and BMI1-introduced cells with caspase inhibitor added in place of BCL-XL. The class given is cell-based, human. To be noted: 30 μM added after c-Myc and BMI1 introduction; culture for 66 days. The method, then:
In place of expressing BCL-XL, another method for controlling caspase was investigated as follows. After c-Myc and BMI1 were introduced, a caspase inhibitor, i.e., Z-VAD FMK (Merck) (10 μM or 30 μM) was added. In this condition, culture was continued for 66 days. When BCL-XL was expressed, the cells proliferated by 64 times; whereas when 30 μM of Z-VAD FMK was added, the cells proliferated by 21 times (FIG. 10). In contrast, when DMSO was used (negative control), no proliferation was observed. Furthermore, when DMSO was used, the number of Annexin V positive cells was counted. As a result, many Annexin V positive cells were present (66.5%). From this, it was confirmed that apoptosis was not suppressed.

SMILES strings stand for the structures. Where a SMILES comes first, the peptide text is derived from it. The star is where a group is joined. Cbz = O=C(OCc1ccccc1)*; CH2F = FC*

For the compound `CC[C@H](C(=O)N1CCCC[C@H]1C(=O)O[C@H](CCc1ccc(OC)c(OC)c1)c1cccc(OCCN2CCOCC2)c1)c1cc(OC)c(OC)c(OC)c1` [Shield-1], in data set [1], the toxic effect entry is listed as “did not have toxic effect”. Moreover, the “number of megakaryocytic progenitor cells” value in data set [1] (c-MYC expression stabilized by adding Shield-1, Day 7) is “decreased in volume-dependent manner”. For the same compound, in data set [2], the “activity of caspase-3/7” value is “caspase was activated”.
Regarding `COC(=O)C[C@H](NC(=O)[C@H](C)NC(=O)[C@@H](NC(=O)OCc1ccccc1)C(C)C)C(=O)CF` [Z-VAD FMK] (Cbz-Val-Ala-Asp(OMe)-CH2F), the cell proliferation in data set [3] came out at 21 times.
